The target of this experiment is T1, WIZ (Homo sapiens, UniProt O95785+Q96SW2).
T1 construct: expressed in transfected cells
Nature of the experiment: Quantification of WIZ protein levels in HiBit tag fusion protein assay (WIZ HiBit assay in 293T cells). It is filed as cell-based. Conditions: for Dmax at 25 µM / remaining activity at 25 µM: HEK-293T; for Dmax at 25 µM / % degradation of WIZ (100-Amax): 100 minus Amax at 25 uM; for Dmax at 25 µM: read-out: % degradation of WIZ (100-Amax); for remaining activity at 25 µM / WIZ Amax: DMSO-normalized, curve-fitted percentage of WIZ-HiBit remaining at 25 uM; for remaining activity at 25 µM: read-out: WIZ Amax; for DC50: WIZ HiBit assay in 293T cells, 10-point, 5-fold dilution, highest concentration 25 μM, about 18 hours, read-out: WIZ AC50. On the procedure:
The HiBit system from Promega was used to develop high-throughput and quantitative assays to measure changes in WIZ protein levels in response to compounds. The HiBit tag was derived from a split Nanoluciferase and has the following protein sequence: […] (SEQ ID NO: 1). The complementary fragment of Nanoluciferase (known as LgBit, from Promega), was added to the HiBit tag to form an active Nanoluciferase enzyme whose activity can be precisely measured. In this way, the levels of a fusion protein with the HiBit tag can be quantified in cell lysates.
Lentiviral vectors, based on the Invitrogen™ pLenti6.2/V5 DEST backbone were constructed that places the HiBit tag upstream of WIZ and expressed the fusion protein from an HSVTK promotor.
To ensure moderate and consistent expression of the HiBit-WIZ fusion protein across all cells in the population, stable cell lines were constructed from cells harboring a single copy of the construct. Lentivirus packaged with the constructs were made using the ViraPower™kit from Invitrogen™. 293T cells from ATCC (Catalog number: CRL-3216), were infected with the virus at low multiplicity of infection and selected by 5 μg/mL blasticidin in culture media for 2 weeks.
The levels of HiBit-WIZ tagged fusion proteins in compound-treated cell lines were measured as follows:
On day 1, cells were diluted to 1.0×10^6 cells/ml in normal growth medium. 20 μL of cell suspension were plated in each well of a solid white 384-well plate. Plates were incubated overnight in a 37° C. and 5% CO2 humidified tissue culture incubator.
On day 2, serial dilutions of compounds were made in 384-well plates. Compound plates were set up with DMSO in columns 1, 2, 23, 24, and 10-point compound dilution series in column 3-12 and column 13-22. 10 mM stock solution of compound were placed into column 3 or 13 and a 1:5 serial dilution was carried out until there was a 10-point dilution series per compound. 50 nL of diluted compounds were transferred into the plated cells by Echo® (Labcyte) acoustic transfer. The highest concentration of compound was 25 μM. Plates were incubated overnight (about 18 hours) in a 37° C. and 5% CO2 humidified tissue culture incubator.
On day 3, plates were removed from the incubator and allowed to equilibrate at room temperature for 60 minutes. HiBit substrate (Nano-Glo® HiBit Lytic Detection System, Promega Catalogue number: N3050) was added as described by the manufacturers protocols. Plates were incubated at room temperature for 30 minutes and luminescence was read using an EnVision® reader (PerkinElmer®). Data was analyzed and visualized using the Spotfire® software package.
WIZ Amax reflects the DMSO-normalized, curve-fitted percentage of WIZ-HiBit remaining at 25 uM. It was calculated by normalizing DMSO controls to 100%, parametric curve fitting of the dose response data (10-point, 5-fold), followed by calculation of response at 25 uM using the fitted equation (nd=not determined).

The record followed here is patent US20250276964A1 (Novartis AG, priority 2021, published 2025).

Each structure is given as a SMILES string.

T1 sequence (O95785 whole entry): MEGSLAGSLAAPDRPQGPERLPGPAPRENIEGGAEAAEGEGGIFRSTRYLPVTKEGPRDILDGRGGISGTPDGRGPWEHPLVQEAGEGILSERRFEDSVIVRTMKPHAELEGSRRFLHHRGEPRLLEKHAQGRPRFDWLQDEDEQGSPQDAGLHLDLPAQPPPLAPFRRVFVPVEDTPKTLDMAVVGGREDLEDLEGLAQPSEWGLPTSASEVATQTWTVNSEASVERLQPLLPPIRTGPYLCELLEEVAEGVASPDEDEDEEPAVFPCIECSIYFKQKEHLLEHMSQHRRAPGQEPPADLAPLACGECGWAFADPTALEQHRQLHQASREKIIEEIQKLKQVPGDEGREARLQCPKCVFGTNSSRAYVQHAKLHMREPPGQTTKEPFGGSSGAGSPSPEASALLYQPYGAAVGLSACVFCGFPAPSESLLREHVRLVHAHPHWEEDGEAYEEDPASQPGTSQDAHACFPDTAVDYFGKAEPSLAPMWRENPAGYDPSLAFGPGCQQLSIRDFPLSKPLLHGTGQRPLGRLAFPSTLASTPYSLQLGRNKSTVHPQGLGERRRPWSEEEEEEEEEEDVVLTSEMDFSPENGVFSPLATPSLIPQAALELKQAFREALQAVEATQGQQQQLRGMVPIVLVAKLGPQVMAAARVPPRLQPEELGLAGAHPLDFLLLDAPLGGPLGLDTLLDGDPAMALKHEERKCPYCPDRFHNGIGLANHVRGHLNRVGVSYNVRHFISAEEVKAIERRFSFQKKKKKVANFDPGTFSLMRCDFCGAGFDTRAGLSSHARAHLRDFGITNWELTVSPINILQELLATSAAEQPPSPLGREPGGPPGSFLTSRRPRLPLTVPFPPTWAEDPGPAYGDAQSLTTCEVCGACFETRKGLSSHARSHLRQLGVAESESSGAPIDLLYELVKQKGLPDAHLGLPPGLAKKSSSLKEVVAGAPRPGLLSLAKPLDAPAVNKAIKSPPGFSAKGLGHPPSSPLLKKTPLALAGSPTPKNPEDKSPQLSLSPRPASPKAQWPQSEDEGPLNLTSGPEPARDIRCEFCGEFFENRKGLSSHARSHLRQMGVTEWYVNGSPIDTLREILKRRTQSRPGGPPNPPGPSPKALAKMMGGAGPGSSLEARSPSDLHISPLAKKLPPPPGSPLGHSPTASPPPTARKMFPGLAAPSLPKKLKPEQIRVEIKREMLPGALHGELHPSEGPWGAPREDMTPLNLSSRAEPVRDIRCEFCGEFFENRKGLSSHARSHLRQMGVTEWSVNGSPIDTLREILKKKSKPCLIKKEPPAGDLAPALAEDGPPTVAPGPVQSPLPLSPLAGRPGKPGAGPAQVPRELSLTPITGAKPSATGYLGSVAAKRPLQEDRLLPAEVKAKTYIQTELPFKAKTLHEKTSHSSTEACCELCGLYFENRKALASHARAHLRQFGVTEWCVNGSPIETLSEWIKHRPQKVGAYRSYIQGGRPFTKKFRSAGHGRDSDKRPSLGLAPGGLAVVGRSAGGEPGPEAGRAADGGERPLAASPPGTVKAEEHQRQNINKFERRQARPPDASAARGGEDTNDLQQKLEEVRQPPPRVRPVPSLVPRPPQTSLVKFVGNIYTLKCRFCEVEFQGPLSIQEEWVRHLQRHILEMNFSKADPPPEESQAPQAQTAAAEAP
T1 sequence (Q96SW2 whole entry): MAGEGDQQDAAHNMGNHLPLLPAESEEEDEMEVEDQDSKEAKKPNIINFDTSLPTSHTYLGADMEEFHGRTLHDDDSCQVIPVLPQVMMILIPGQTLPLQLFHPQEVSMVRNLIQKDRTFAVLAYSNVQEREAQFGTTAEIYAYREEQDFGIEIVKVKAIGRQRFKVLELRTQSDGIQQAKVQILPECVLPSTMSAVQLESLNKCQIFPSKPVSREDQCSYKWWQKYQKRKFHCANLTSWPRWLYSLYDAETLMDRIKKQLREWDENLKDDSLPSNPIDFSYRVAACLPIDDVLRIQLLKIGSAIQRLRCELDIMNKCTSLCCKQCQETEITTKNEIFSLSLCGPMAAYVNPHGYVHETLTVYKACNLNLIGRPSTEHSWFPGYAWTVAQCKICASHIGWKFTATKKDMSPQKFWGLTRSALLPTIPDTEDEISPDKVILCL
T1 sequence (Q16531 whole entry partner): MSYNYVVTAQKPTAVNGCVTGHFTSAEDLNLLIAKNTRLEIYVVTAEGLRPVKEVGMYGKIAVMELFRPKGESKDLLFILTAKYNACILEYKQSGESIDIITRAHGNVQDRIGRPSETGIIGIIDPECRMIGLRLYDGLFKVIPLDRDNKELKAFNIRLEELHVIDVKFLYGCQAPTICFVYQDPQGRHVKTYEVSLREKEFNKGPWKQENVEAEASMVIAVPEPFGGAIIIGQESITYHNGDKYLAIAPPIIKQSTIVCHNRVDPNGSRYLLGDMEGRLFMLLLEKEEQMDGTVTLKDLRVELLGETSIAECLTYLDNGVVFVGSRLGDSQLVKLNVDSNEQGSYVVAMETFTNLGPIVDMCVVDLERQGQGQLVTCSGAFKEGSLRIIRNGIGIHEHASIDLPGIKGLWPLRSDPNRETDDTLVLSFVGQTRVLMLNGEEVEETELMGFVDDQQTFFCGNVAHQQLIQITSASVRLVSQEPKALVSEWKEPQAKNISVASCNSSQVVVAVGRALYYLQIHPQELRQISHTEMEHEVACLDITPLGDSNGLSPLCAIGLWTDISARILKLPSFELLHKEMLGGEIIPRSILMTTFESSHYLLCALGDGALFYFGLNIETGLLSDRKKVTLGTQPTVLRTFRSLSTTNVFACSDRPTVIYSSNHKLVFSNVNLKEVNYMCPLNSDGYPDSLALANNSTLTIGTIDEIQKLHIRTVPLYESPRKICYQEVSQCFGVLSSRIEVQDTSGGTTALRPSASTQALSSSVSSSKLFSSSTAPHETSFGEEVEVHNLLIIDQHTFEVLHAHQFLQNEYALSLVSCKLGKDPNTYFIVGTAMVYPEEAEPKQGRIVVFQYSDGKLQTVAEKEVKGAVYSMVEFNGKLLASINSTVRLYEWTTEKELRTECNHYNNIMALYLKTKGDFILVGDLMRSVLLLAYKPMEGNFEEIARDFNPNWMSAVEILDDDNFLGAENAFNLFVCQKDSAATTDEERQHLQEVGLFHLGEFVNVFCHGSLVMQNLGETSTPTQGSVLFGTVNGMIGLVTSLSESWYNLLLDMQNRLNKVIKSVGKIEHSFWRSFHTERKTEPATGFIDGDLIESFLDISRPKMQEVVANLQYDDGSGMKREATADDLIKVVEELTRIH

Take `CC(C)(C)OC(=O)N1CCCC(Cc2ccc3onc(N4CCC(=O)NC4=O)c3c2)C1` (stereo not drawn) [Example 42, tert-butyl 3-((3-(2,4-dioxotetrahydropyrimidin-1 (2H)-yl)benzo[d]isoxazol-5-yl)methyl)piperidine-1-carboxylate]: the Dmax at 25 µM amounted to 82%, the remaining activity at 25 µM came out at 18% and the DC50 was 1010 nM.

Regarding `O=C1CCN(c2noc3ccc(CC4CCCNC4)cc23)C(=O)N1` (stereo not drawn) [Example 43, 1-(5-(piperidin-3-ylmethyl)benzo[d]isoxazol-3-yl)dihydropyrimidine-2,4(1H,3H)-dione], the Dmax at 25 µM is 78%, the remaining activity at 25 µM is 22% and the DC50 is 940 nM.

For `O=C1CCN(c2noc3ccc(CC4CCCN(CC5CCCCC5)C4)cc23)C(=O)N1` (stereo not drawn) [Example 44, 1-(5-((1-(cyclohexylmethyl)piperidin-3-yl)methyl)benzo[d]isoxazol-3-yl)dihydropyrimidine-2,4(1H,3H)-dione], the Dmax at 25 µM came to 77%, the remaining activity at 25 µM was 23% and the DC50 is 475 nM.

As for `CN1CCCC(Cc2ccc3onc(N4CCC(=O)NC4=O)c3c2)C1` (stereo not drawn) [Example 45, 1-(5-((1-methylpiperidin-3-yl)methyl)benzo[d]isoxazol-3-yl)dihydropyrimidine-2,4(1H,3H)-dione], the Dmax at 25 µM was 77%, the remaining activity at 25 µM amounted to 23% and the DC50 came out at 240 nM.

In the case of `CC(C)CN1CCCC(Cc2ccc3onc(N4CCC(=O)NC4=O)c3c2)C1` (stereo not drawn) [Example 46, 1-(5-((1-isobutylpiperidin-3-yl)methyl)benzo[d]isoxazol-3-yl)dihydropyrimidine-2,4(1H,3H)-dione], the Dmax at 25 µM worked out at 77%, the remaining activity at 25 µM came out at 23% and the DC50 was 197 nM.

For `CC(C)(C)OC(=O)N1CCC(Cc2ccc3onc(N4CCC(=O)NC4=O)c3c2)C1` (stereo not drawn) [Example 47, tert-butyl 3-((3-(2,4-dioxotetrahydropyrimidin-1 (2H)-yl)benzo[d]isoxazol-5-yl)methyl)pyrrolidine-1-carboxylate], the Dmax at 25 µM is 85%, the remaining activity at 25 µM was found to be 15% and the DC50 amounted to 397 nM.

For the molecule `O=C1CCN(c2noc3ccc(CC4CCNC4)cc23)C(=O)N1` (stereo not drawn) [Example 48, 1-(5-(pyrrolidin-3-ylmethyl)benzo[d]isoxazol-3-yl)dihydropyrimidine-2,4(1H,3H)-dione], the Dmax at 25 µM was found to be 77%, the remaining activity at 25 µM was found to be 23% and the DC50 is 1160 nM.

Regarding `O=C1CCN(c2noc3ccc(CC4CCN(CC5CCCCC5)C4)cc23)C(=O)N1` (stereo not drawn) [Example 49, 1-(5-((1-(cyclohexylmethyl)pyrrolidin-3-yl)methyl)benzo[d]isoxazol-3-yl)dihydropyrimidine-2,4(1H,3H)-dione], the Dmax at 25 µM stood at 87%, the remaining activity at 25 µM is 13% and the DC50 amounted to 279 nM.

Take `CN1CCC(Cc2ccc3onc(N4CCC(=O)NC4=O)c3c2)C1` (stereo not drawn) [Example 50, 1-(5-((1-methylpyrrolidin-3-yl)methyl)benzo[d]isoxazol-3-yl)dihydropyrimidine-2,4(1H,3H)-dione]: the Dmax at 25 µM is 78%, the remaining activity at 25 µM is 22% and the DC50 worked out at 448 nM.

Turning to `CC(C)(C)OC(=O)N1CCCC(Cc2ccc3onc(N4CCC(=O)NC4=O)c3c2)CC1` (stereo not drawn) [Example 51, tert-butyl 4-((3-(2,4-dioxotetrahydropyrimidin-1 (2H)-yl)benzo[d]isoxazol-5-yl)methyl)azepane-1-carboxylate], the Dmax at 25 µM was 87%, the remaining activity at 25 µM came to 13% and the DC50 was 392 nM.

As for `O=C1CCN(c2noc3ccc(CC4CCCNCC4)cc23)C(=O)N1` (stereo not drawn) [Example 52, 1-(5-(azepan-4-ylmethyl)benzo[d]isoxazol-3-yl)dihydropyrimidine-2,4(1H,3H)-dione], the Dmax at 25 µM was found to be 86%, the remaining activity at 25 µM was 14% and the DC50 was 57 nM.

Regarding `CN1CCCC(Cc2ccc3onc(N4CCC(=O)NC4=O)c3c2)CC1` (stereo not drawn) [Example 53, 1-(5-((1-methylazepan-4-yl)methyl)benzo[d]isoxazol-3-yl)dihydropyrimidine-2,4(1H,3H)-dione], the Dmax at 25 µM stood at 87%, the remaining activity at 25 µM turned out to be 13% and the DC50 was 4 nM.

With `O=C1CCN(c2noc3ccc(CC4C[C@H]5CC[C@@H](C4)N5)cc23)C(=O)N1` (stereo partly drawn) [Example 56, 1-(5-(((1R,5S)-8-azabicyclo[3.2.1]octan-3-yl)methyl)benzo[d]isoxazol-3-yl)dihydropyrimidine-2,4(1H,3H)-dione], the “% degradation of WIZ (100-Amax)” value is listed as 45%, the “WIZ Amax” value was found to be 55% and the DC50 is 251 nM.

For the molecule `O=C1CCN(c2noc3ccc(CC4C[C@H]5CC[C@@H](C4)N5)cc23)C(=O)N1` (stereo partly drawn) [Example 57, 1-(5-(((1R,5S)-8-azabicyclo[3.2.1]octan-3-yl)methyl)benzo[d]isoxazol-3-yl)dihydropyrimidine-2,4(1H,3H)-dione], the “% degradation of WIZ (100-Amax)” value stood at 80%, the “WIZ Amax” value is listed as 20% and the DC50 stood at 649 nM.

For the molecule `CN1[C@@H]2CC[C@H]1CC(Cc1ccc3onc(N4CCC(=O)NC4=O)c3c1)C2` (stereo partly drawn) [Example 58, 1-(5-(((1R,5S)-8-methyl-8-azabicyclo[3.2.1]octan-3-yl)methyl)benzo[d]isoxazol-3-yl)dihydropyrimidine-2,4(1H,3H)-dione], the Dmax at 25 µM stood at 89%, the remaining activity at 25 µM came to 11% and the DC50 was found to be 20 nM.

For `CN1[C@@H]2CC[C@H]1CC(Cc1ccc3onc(N4CCC(=O)NC4=O)c3c1)C2` (stereo partly drawn) [Example 59, 1-(5-(((1R,5S)-8-methyl-8-azabicyclo[3.2.1]octan-3-yl)methyl)benzo[d]isoxazol-3-yl)dihydropyrimidine-2,4(1H,3H)-dione], the “% degradation of WIZ (100-Amax)” value is 84%, the “WIZ Amax” value amounted to 16% and the DC50 came to 25 nM.

In the case of `CS(=O)(=O)N1[C@@H]2CC[C@H]1CC(Cc1ccc3onc(N4CCC(=O)NC4=O)c3c1)C2` (stereo partly drawn) [Example 60, 1-(5-(((1R,5S)-8-(methylsulfonyl)-8-azabicyclo[3.2.1]octan-3-yl)methyl)benzo[d]isoxazol-3-yl)dihydropyrimidine-2,4(1H,3H)-dione], the Dmax at 25 µM was 90%, the remaining activity at 25 µM is 10% and the DC50 is 9 nM.

Turning to `CS(=O)(=O)N1[C@@H]2CC[C@H]1CC(Cc1ccc3onc(N4CCC(=O)NC4=O)c3c1)C2` (stereo partly drawn) [Example 61, 1-(5-(((1R,5S)-8-(methylsulfonyl)-8-azabicyclo[3.2.1]octan-3-yl)methyl)benzo[d]isoxazol-3-yl)dihydropyrimidine-2,4(1H,3H)-dione], the “% degradation of WIZ (100-Amax)” value is 85%, the “WIZ Amax” value is given as 15% and the DC50 turned out to be 26 nM.

As to `CCN1CCN(Cc2ccc3onc(N4CCC(=O)NC4=O)c3c2)CC1` [Example 62, 1-(5-((4-ethylpiperazin-1-yl)methyl)benzo[d]isoxazol-3-yl)dihydropyrimidine-2,4(1H,3H)-dione], the Dmax at 25 µM was 89%, the remaining activity at 25 µM came out at 11% and the DC50 came out at 24 nM.
